Patent US20090175882A1, “METHODS AND COMPOSITIONS FOR TREATING HYPERALGESIA” (IRM LLC, priority 2006, published 2009)
pIC50: −log10 of the molar value. “Also recorded” adds a separate entry of the source.

Legend:
TRPV4 = target: T1, TRPV4 (Rattus norvegicus, UniProt Q9ERZ8); experiment: ThermoTRP selectivity test; format: cell-based; details: at 50 μM (data not shown)
T1 construct: expressed in transfected cells; not restated for the selectivity test

TRPA1 [1] = target: T2, TRPA1 (Homo sapiens, UniProt O75762); experiment: Cinnamaldehyde-induced currents in inside-out excised patches of Xenopus oocytes; format: cell-based; design: expressed in transfected cells; host or cells: Xenopus oocytes injected with cRNA (pOX vector); details: coapplication with cinnamaldehyde, inside-out macropatches
Procedure: (C) Current-voltage relationship of TRPA1.
Mature 17 defolliculated Xenopus oocytes were injected with 50 nl of human TRPA1 cRNA at ˜1 μg/μl. Oocytes were incubated in ND96 (96 mM NaCl, 2 mM KCl, 1 mM MgCl2, 1.8 mM CaCl2, 5 mM HEPES, pH 7.4, supplemented with Na-pyruvate (2.5 mM), penicillin (100 u/ml) and streptomycin (100 μg/ml) 3-5 days to ensure expression. Vitelline envelopes were mechanically removed prior to recording. Recordings were made under voltage clamp from excised patches in the inside-out configuration at room temperature with 1-1.5 MΩ pipettes. The bath ground was isolated using an agar bridge. Capacitance and series resistance were compensated and solutions that eliminate native calcium-activated chloride currents were used (Patch electrode (in mM): 140 NaMES, 4 NaCl, 1 EGTA, 10 HEPES, pH 7.2; bath solution: 140 KMES, 4 KCl, 1 EGTA, 10 HEPES, pH 7.2). Compounds were added to the bath solution. Currents were recorded using a Multiclamp 700B amplifier and the pCLAMP acquisition suite.

TRPV3 = target: T3, TRPV3 (Mus musculus, UniProt Q8K424); experiment: ThermoTRP selectivity test; format: cell-based; details: at 50 μM (data not shown)
T3 construct: expressed in transfected cells; not restated for the selectivity test
T3 sequence (Q8K424 1-791): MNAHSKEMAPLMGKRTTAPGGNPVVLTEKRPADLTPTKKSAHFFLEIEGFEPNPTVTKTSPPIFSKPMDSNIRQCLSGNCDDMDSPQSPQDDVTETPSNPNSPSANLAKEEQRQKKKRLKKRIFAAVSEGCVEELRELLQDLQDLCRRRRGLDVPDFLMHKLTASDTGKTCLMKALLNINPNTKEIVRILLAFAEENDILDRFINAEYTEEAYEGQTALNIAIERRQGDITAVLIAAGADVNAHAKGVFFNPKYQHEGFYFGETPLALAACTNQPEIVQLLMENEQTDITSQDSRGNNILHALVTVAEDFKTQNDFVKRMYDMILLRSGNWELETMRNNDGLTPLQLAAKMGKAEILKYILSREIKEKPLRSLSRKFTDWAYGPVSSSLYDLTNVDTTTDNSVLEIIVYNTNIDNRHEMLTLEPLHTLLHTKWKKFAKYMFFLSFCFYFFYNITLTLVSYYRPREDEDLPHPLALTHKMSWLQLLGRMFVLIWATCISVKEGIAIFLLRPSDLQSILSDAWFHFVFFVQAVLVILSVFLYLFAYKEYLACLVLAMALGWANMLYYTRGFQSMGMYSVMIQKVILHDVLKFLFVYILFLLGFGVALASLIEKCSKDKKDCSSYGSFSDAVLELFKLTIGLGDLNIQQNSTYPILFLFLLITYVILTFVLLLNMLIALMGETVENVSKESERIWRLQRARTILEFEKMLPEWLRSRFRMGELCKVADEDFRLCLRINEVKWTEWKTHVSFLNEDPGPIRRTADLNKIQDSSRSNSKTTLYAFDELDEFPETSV

[2] = system: CFA-induced heat hyperalgesia; experiment: CFA-induced heat hyperalgesia; format: in vivo; details: mice
Procedure: (§1) Red symbols represent responses from CFA-injected (A), or BK-injected (B) hindpaws while blue symbols represent responses from the other noninjected hindpaws of the same animals. Circles represent responses upon compound 18 treatment, whereas triangles represent responses upon vehicle treatments (A-C). Von Frey thresholds are measured and averaged. (***p<0.001, *p<0.05, two-tailed Student's T-test). […] Red symbols represent responses from CFA-injected hindpaws while blue symbols represent responses from the other non-injected hindpaws of the same animals. Number of flicks, licks, paw raises for 10 min at each time point are counted and averaged (n=8, *p<0.05, two-tailed Student's T-test).
Behavioral assays: Mice (C57B16 Mus musculus) of 8-10 weeks in age and 150-250 g Sprague Dawley rats were used for all behavioral assays. Animals were acclimated for 20-60 min to their testing environment prior to all experiments. Students' T test was used for all statistical calculations. All error bars represent standard error of the mean (SEM). Thermal plates, Hargreaves method (Plantar Analgesia meter) and Von Frey apparatus (Dynamic Plantar Aesthesiometer) were from UGO Basile and Columbus instruments. […] Briefly, mice were acclimated for 60 min to their testing environment prior to all experiments. Baseline responses were measured first and then 10 nM BK was injected to the skin of left hindpaws. Von Frey threshold or paw withdrawal latency was measured at 5, 15 and 30 min post injection. 1 mM of compound 18 was sometimes coinjected to left hindpaws to test its analgesic effect. For CFA-induced hyperalgesia test, 5 μg CFA in 10 uL was injected into mice (Caterina et al., Science 288:306, 2000; and Cao et al., Nature 392:390, 1998) and 50 μg in 100 uL (1:1 emulsion of mineral oil and saline; Obata et al., J Clin Invest 115:2393, 2005) was injected into rats and in 24 hrs measurements were performed. Before the measurement, the animals were re-acclimated to the environment for 20-60 min. […]

rat TRPA1 = rat TRPA1 (Rattus norvegicus, UniProt Q6RI86); experiment: Block of rat TRPA1 (data not shown); format: cell-based
[3] = system: BK-induced nociceptive mechanical behaviours; experiment: Bradykinin-induced mechanical hyperalgesia (Von Frey threshold); format: in vivo; details: short term hyperalgesia model, 1 mM coinjected, mice
Procedure: as §1
Behavioral assays: Mice (C57B16 Mus musculus) of 8-10 weeks in age and 150-250 g Sprague Dawley rats were used for all behavioral assays. Animals were acclimated for 20-60 min to their testing environment prior to all experiments. Students' T test was used for all statistical calculations. All error bars represent standard error of the mean (SEM). Thermal plates, Hargreaves method (Plantar Analgesia meter) and Von Frey apparatus (Dynamic Plantar Aesthesiometer) were from UGO Basile and Columbus instruments. […] Baseline responses were measured first and then 10 nM BK was injected to the skin of left hindpaws. Von Frey threshold or paw withdrawal latency was measured at 5, 15 and 30 min post injection. […]

TRPA1 [4] = target: T2, TRPA1; experiment: FLIPR calcium-influx assay, block of cinnamaldehyde activation, CHO cells; format: cell-based; design: expressed in transfected cells; details: elicited by 50 μM cinnamaldehyde
Procedure: Calcium influx was measured using a standard FLIPR assay, data points are the average of 4 wells (˜8,000 cells/well) and error bars show standard error. […] Data was generated using the FLIPR calcium-influx assay, n=3 wells (˜8,000 cells/well) and normalized to the maximal response. Bars show standard error and solid curves are hill equation fits from which EC50 values are derived.
Using FLIPR calcium-influx assay, we screened 43,648 small molecules for their ability to block cinnamaldehyde-activation of human TRPA1 in a CHO cell line.
FLIPR Screen: CHO cells expressing human TRPA1 were plated into 384 well plates at a concentration of ˜8,000 cells/well. Cells were transferred to phosphate-buffered saline (PBS) and loaded with the calcium sensitive dye FLUO-4 using the FLIPR Calcium 3 Assay Kit (Molecular Devices, Sunnyvale, Calif.) 1 hour prior to the assay. Assays were run using the FLIPR2 (Molecular Devices, Sunnyvale, Calif.). All compounds were diluted into PBS from a high concentration DMSO-based stock solution and added during data collection with the FLIPR2 internal pipette head. Final DMSO concentrations never exceeded 0.5%.

[5] = system: cinnamaldehyde-induced nociceptive events; experiment: Acute nociceptive behaviour after hindpaw injection of cinnamaldehyde; format: in vivo, mice; details: cinnamaldehyde 16.4 mM coinjected with compound 18 1 mM
Procedure: Time spent licking and flicking hindpaws injected with cinnamaldehyde (16.4 mM) or capsaicin (0.328 mM) is measured for 5 min and compared with the hindpaw of another animal coinjected with compound 18 (1 mM). Numbers of cases for each experiment from the left is 8, 8, 6 and 6, respectively (***p<0.001, *p<0.05, two-tailed Student's T-test).
We next set out to test if acute block of TRPA1 had any physiological consequence on pain sensation. […] To test the efficacy and specificity of compound 18 in vivo, we coinjected cinnamaldehyde and compound 18 in hindpaw of mice.
Behavioral assays: Mice (C57B16 Mus musculus) of 8-10 weeks in age and 150-250 g Sprague Dawley rats were used for all behavioral assays. Animals were acclimated for 20-60 min to their testing environment prior to all experiments. Students' T test was used for all statistical calculations. All error bars represent standard error of the mean (SEM). […] Briefly, mice were acclimated for 60 min to their testing environment prior to all experiments.

[6] = system: acute heat or pressure to the paw; experiment: Nociceptive responses to acute heat or pressure to the paw; format: in vivo; details: data not shown

T2 sequence (O75762 whole entry): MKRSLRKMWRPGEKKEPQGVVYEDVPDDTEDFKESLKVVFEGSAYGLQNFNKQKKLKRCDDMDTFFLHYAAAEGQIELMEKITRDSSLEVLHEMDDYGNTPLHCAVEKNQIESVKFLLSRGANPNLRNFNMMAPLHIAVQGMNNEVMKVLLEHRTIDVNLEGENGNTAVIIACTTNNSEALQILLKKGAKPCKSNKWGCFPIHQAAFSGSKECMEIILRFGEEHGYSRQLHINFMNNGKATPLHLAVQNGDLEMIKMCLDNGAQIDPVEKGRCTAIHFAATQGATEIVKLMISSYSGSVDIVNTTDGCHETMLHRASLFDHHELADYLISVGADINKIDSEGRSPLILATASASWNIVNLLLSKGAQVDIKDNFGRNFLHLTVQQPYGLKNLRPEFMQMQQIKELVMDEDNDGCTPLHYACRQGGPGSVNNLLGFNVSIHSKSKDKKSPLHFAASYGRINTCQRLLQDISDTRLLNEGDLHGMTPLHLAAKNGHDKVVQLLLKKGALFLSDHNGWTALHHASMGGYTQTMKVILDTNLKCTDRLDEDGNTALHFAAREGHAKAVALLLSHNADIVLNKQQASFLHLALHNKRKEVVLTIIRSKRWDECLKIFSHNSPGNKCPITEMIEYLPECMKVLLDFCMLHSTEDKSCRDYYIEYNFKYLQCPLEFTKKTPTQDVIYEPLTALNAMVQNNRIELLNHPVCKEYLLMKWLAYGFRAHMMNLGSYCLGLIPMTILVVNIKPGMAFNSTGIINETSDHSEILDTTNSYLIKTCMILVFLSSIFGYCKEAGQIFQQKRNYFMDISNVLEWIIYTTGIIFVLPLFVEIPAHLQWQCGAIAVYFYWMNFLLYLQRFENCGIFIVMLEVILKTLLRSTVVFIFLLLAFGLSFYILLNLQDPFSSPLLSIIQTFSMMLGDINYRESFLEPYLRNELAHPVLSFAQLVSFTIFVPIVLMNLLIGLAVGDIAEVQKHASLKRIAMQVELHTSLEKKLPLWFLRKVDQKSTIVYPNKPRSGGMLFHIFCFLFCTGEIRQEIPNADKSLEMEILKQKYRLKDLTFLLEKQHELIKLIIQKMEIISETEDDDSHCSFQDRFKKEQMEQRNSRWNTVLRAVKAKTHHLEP
rat TRPA1, sequence (Q6RI86 whole entry): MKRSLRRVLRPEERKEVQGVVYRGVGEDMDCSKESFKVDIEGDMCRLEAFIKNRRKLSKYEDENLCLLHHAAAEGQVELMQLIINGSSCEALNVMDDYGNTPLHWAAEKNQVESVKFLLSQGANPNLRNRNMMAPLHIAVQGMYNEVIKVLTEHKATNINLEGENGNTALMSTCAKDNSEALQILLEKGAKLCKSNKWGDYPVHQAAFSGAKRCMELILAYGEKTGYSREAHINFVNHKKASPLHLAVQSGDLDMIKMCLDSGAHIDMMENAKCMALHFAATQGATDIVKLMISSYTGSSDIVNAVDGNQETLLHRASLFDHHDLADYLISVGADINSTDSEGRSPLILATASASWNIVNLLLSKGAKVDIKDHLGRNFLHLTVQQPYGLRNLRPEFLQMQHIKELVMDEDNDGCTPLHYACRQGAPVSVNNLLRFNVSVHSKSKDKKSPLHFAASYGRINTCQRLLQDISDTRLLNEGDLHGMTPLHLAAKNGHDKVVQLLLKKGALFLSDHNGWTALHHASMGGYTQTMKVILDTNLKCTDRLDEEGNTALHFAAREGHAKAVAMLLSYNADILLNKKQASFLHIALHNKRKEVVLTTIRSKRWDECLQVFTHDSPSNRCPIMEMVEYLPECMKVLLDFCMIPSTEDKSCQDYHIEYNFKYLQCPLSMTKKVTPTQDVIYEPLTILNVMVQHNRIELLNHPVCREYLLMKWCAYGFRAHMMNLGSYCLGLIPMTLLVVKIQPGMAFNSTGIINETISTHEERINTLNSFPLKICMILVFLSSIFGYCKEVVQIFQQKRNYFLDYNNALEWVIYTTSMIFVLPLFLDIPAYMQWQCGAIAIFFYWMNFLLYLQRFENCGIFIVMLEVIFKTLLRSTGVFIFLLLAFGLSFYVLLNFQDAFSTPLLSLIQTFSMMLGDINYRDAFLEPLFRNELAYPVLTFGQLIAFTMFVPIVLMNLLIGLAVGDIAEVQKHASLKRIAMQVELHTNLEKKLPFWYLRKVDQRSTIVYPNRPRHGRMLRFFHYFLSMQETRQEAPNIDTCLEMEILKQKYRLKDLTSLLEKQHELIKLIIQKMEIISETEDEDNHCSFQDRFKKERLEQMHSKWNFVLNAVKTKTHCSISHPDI
T1 sequence (Q9ERZ8 whole entry): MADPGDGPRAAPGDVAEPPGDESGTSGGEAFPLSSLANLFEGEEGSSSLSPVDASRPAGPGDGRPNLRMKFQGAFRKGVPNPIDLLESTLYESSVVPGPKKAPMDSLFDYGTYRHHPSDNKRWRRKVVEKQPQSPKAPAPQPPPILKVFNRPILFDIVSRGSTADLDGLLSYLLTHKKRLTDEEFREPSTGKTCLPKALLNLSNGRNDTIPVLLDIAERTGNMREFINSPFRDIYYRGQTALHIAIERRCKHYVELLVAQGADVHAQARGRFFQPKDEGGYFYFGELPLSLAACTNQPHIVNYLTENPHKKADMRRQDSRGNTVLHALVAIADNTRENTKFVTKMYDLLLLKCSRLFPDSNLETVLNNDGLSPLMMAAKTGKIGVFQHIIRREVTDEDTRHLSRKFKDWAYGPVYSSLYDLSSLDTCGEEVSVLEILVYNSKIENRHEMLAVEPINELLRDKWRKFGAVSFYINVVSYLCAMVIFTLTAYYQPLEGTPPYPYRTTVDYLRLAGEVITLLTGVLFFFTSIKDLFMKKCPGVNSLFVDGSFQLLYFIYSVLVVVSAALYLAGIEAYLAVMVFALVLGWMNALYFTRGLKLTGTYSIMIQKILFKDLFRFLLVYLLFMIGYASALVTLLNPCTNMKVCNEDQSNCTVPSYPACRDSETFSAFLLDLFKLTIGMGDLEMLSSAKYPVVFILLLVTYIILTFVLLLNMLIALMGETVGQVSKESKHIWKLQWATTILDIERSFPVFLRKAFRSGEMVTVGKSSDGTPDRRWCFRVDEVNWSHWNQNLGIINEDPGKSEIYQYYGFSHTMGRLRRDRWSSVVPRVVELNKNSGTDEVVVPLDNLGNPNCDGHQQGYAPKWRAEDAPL

## CC(=Cc1ccc(Cl)cc1)C(C)=NO [Compound 18, (Z)-4-(4-chlorophynyl)-3-methylbut-3-en-2-oxime]
TRPV4
  block of TRPV4: did not block
TRPA1 [1]
  block of cinnamaldehyde-induced TRPA1 currents in excised patches: suppressed; also recorded: blocked
TRPV3
  block of TRPV3: did not block
[2]
  CFA-induced heat hyperalgesia: not thermal (heat) behaviours; also recorded: did not block
Rat TRPA1
  block of rat TRPA1: blocked
[3]
  BK-induced mechanical nociceptive behavior: reverses
TRPA1 [4]
  pIC50: 5.51
[5]
  cinnamaldehyde-induced nociceptive events (time spent licking and flicking hindpaw, 5 min): suppresses; also recorded: significantly blocked
[6]
  nociceptive responses to acute heat to the paw: not affected
  nociceptive responses to acute pressure to the paw: not affected
